Measured values reported in patent US6737383B1, “Herbicidal oxadiazolidines” (priority 1999, dated 2004).

What was measured:
cocklebur = assay: Test B pre/postemergence cocklebur; format: in vivo, Xanthium strumarium; conditions: for Cocklebur plant response rating: scale of 0 to 10 where 0 is no effect and 10 is complete control
How it was run: (§1)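 Herbicidal effect was estimated by eye on a ten-point control scale after plants spent twelve to sixteen days in a greenhouse following soil or foliar treatment. Foliar sprays targeted plants at one to four leaves; all doses were formulated in a non-phytotoxic solvent with surfactant.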

corn = assay: Test B pre/postemergence corn; format: in vivo, Zea mays; conditions: for Corn plant response rating: scale of 0 to 10 where 0 is no effect and 10 is complete control
How it was run: as §1

crabgrass = assay: Test B pre/postemergence crabgrass; format: in vivo, Digitaria sanguinalis; conditions: for Crabgrass plant response rating: scale of 0 to 10 where 0 is no effect and 10 is complete control
How it was run: as §1

giant foxtail = assay: Test B pre/postemergence giant foxtail; format: in vivo, Setaria faberii; conditions: for Giant foxtail plant response rating: scale of 0 to 10 where 0 is no effect and 10 is complete control
How it was run: as §1

morningglory = assay: Test B pre/postemergence morningglory; format: in vivo, Ipomoea hederacea; conditions: for Morningglory plant response rating: scale of 0 to 10 where 0 is no effect and 10 is complete control
How it was run: as §1

pigweed = assay: Test B pre/postemergence pigweed; format: in vivo, Amaranthus retroflexus; conditions: for Redroot pigweed plant response rating: scale of 0 to 10 where 0 is no effect and 10 is complete control
How it was run: as §1

rape = assay: Test B pre/postemergence rape; format: in vivo, Brassica napus; conditions: for Rape plant response rating: scale of 0 to 10 where 0 is no effect and 10 is complete control
How it was run: as §1

soybean = assay: Test B pre/postemergence soybean; format: in vivo, Glycine max; conditions: for Soybean plant response rating: scale of 0 to 10 where 0 is no effect and 10 is complete control
How it was run: as §1

sugar beet = assay: Test B pre/postemergence sugar beet; format: in vivo, Beta vulgaris; conditions: for Sugarbeets plant response rating: scale of 0 to 10 where 0 is no effect and 10 is complete control
How it was run: as §1

velvetleaf = assay: Test B pre/postemergence velvetleaf; format: in vivo, Abutilon theophrasti; conditions: for Velvetleaf plant response rating: scale of 0 to 10 where 0 is no effect and 10 is complete control
How it was run: as §1

wheat = assay: Test B pre/postemergence wheat; format: in vivo, Triticum aestivum; conditions: for Wheat plant response rating: scale of 0 to 10 where 0 is no effect and 10 is complete control
How it was run: as §1

wild oat = assay: Test B pre/postemergence wild oat; format: in vivo, Avena fatua; conditions: for Wild oats plant response rating: scale of 0 to 10 where 0 is no effect and 10 is complete control
How it was run: as §1

purple nutsedge = assay: Test B pre/postemergence purple nutsedge; format: in vivo, Cyperus rotundus; conditions: for Nutsedge plant response rating: scale of 0 to 10 where 0 is no effect and 10 is complete control
How it was run: as §1

rice = assay: Test B flood test rice; format: in vivo, Oryza sativa
How it was run: (§2)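 Read-out is a visual response score from 0 (no effect) to 10 (complete control), assigned by comparison with untreated controls. Treatment was applied at the 2-leaf stage, and plants stayed in the greenhouse for twelve to sixteen days before scoring.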

duck salad = assay: Test B flood test duck salad; format: in vivo, Heteranthera limosa
How it was run: as §2

bamyardgrass = assay: Test B flood test barnyardgrass; format: in vivo, Echinochloa crus-galli
How it was run: as §2

[1] = Postemergence, Rate 125 g/ha, scale 0 to 10, 0 is no effect, 10 is complete control
[2] = Preemergence, Rate 62 g/ha, scale 0 to 10 (0 no effect, 10 complete control)
[3] = Rate 500 g/ha, Postemergence, scale 0 to 10, 0 no effect, 10 complete control
[4] = Postemergence (flood test), Rate 125 g/ha, scale 0 to 10, 0 is no effect, 10 is complete control
[5] = Rate 62 g/ha, Postemergence (flood test species), scale of 0 to 10 where 0 is no effect and 10 is complete control
[6] = Rate 62 g/ha, flood test species, Pre-emergence, visual evaluation after twelve to sixteen days
[7] = Rate 125 g/ha, Pre-emergence, flood test species, scale 0 to 10 where 0 is no effect and 10 is complete control
[8] = Rate 250 g/ha, Pre-emergence, flood-test species, scale 0 to 10, 0 is no effect, 10 is complete control
[9] = Rate 500 g/ha, listed under Postemergence (flood test species), scale 0 to 10, 0 no effect, 10 complete control
[10] = Rate 500 g/ha, Pre-emergence, flood test species, scale 0 to 10 (0 no effect, 10 complete control)

## CC(C)N(C(=O)n1oc(=O)n(C2CCC2)c1=O)c1ccc(F)cc1 [Compound 350]
cocklebur; [1]
  Plant response rating, Cocklebur: 0
cocklebur; [2]
  Plant response rating, Cocklebur: 0
cocklebur; Preemergence, Rate 125 g/ha
  Cocklebur plant response rating (0 to 10 scale): 0
cocklebur; Preemergence, Rate 250 g/ha
  Cocklebur plant response rating: 0
cocklebur; Preemergence, Rate 500 g/ha
  Cocklebur plant response rating: 0
cocklebur; Rate 62 g/ha, Postemergence
  Cocklebur plant response rating: 0
cocklebur; [3]
  Plant response rating, Cocklebur: 3
corn; [1]
  Plant response rating, Corn: 0
corn; [2]
  Plant response rating, Corn: 0
corn; Preemergence, Rate 125 g/ha
  Corn plant response rating (0 to 10 scale): 0
corn; Preemergence, Rate 250 g/ha
  Corn plant response rating: 0
corn; Preemergence, Rate 500 g/ha
  Corn plant response rating: 7
corn; Rate 62 g/ha, Postemergence
  Corn plant response rating: 0
corn; [3]
  Plant response rating, Corn: 0
crabgrass; [1]
  Plant response rating, Crabgrass: 1
crabgrass; [2]
  Plant response rating, Crabgrass: 8
crabgrass; Preemergence, Rate 125 g/ha
  Crabgrass plant response rating (0 to 10 scale): 8
crabgrass; Preemergence, Rate 250 g/ha
  Crabgrass plant response rating: 10
crabgrass; Preemergence, Rate 500 g/ha
  Crabgrass plant response rating: 10
crabgrass; Rate 62 g/ha, Postemergence
  Crabgrass plant response rating: 1
crabgrass; [3]
  Plant response rating, Crabgrass: 7
Giant foxtail; [1]
  Plant response rating, Giant foxtail: 8
Giant foxtail; [2]
  Plant response rating, Giant foxtail: 10
Giant foxtail; Preemergence, Rate 125 g/ha
  Giant foxtail plant response rating (0 to 10 scale): 10
Giant foxtail; Preemergence, Rate 250 g/ha
  Giant foxtail plant response rating: 10
Giant foxtail; Preemergence, Rate 500 g/ha
  Giant foxtail plant response rating: 10
Giant foxtail; Rate 62 g/ha, Postemergence
  Giant foxtail plant response rating: 5
Giant foxtail; [3]
  Plant response rating, Giant foxtail: 9
morningglory; [1]
  Plant response rating, Morningglory: 6
morningglory; [2]
  Plant response rating, Morningglory: 0
morningglory; Preemergence, Rate 125 g/ha
  Morningglory plant response rating (0 to 10 scale): 0
morningglory; Preemergence, Rate 250 g/ha
  Morningglory plant response rating: 0
morningglory; Preemergence, Rate 500 g/ha
  Morningglory plant response rating: 2
morningglory; Rate 62 g/ha, Postemergence
  Morningglory plant response rating: 3
morningglory; [3]
  Plant response rating, Morningglory: 9
pigweed; [1]
  Plant response rating, Redroot pigweed: 0
pigweed; [2]
  Plant response rating, Redroot pigweed: 4
pigweed; Preemergence, Rate 125 g/ha
  Redroot pigweed plant response rating (0 to 10 scale): 10
pigweed; Preemergence, Rate 250 g/ha
  Redroot pigweed plant response rating: 10
pigweed; Preemergence, Rate 500 g/ha
  Redroot pigweed plant response rating: 10
pigweed; Rate 62 g/ha, Postemergence
  Redroot pigweed plant response rating: 0
pigweed; [3]
  Plant response rating, Redroot pigweed: 3
rape; [1]
  Plant response rating, Rape: 0
rape; [2]
  Plant response rating, Rape: 0
rape; Preemergence, Rate 125 g/ha
  Rape plant response rating (0 to 10 scale): 0
rape; Preemergence, Rate 250 g/ha
  Rape plant response rating: 7
rape; Preemergence, Rate 500 g/ha
  Rape plant response rating: 10
rape; Rate 62 g/ha, Postemergence
  Rape plant response rating: 0
rape; [3]
  Plant response rating, Rape: 2
soybean; [1]
  Plant response rating, Soybean: 1
soybean; [2]
  Plant response rating, Soybean: 0
soybean; Preemergence, Rate 125 g/ha
  Soybean plant response rating (0 to 10 scale): 0
soybean; Preemergence, Rate 250 g/ha
  Soybean plant response rating: 0
soybean; Preemergence, Rate 500 g/ha
  Soybean plant response rating: 2
soybean; Rate 62 g/ha, Postemergence
  Soybean plant response rating: 1
soybean; [3]
  Plant response rating, Soybean: 3
Sugar beet; [1]
  Plant response rating, Sugarbeets: 0
Sugar beet; [2]
  Plant response rating, Sugarbeets: 2
Sugar beet; Preemergence, Rate 125 g/ha
  Sugarbeets plant response rating (0 to 10 scale): 2
Sugar beet; Preemergence, Rate 250 g/ha
  Sugarbeets plant response rating: 4
Sugar beet; Preemergence, Rate 500 g/ha
  Sugarbeets plant response rating: 9
Sugar beet; Rate 62 g/ha, Postemergence
  Sugarbeets plant response rating: 0
Sugar beet; [3]
  Plant response rating, Sugarbeets: 0
velvetleaf; [1]
  Plant response rating, Velvetleaf: 0
velvetleaf; [2]
  Plant response rating, Velvetleaf: 2
velvetleaf; Preemergence, Rate 125 g/ha
  Velvetleaf plant response rating (0 to 10 scale): 2
velvetleaf; Preemergence, Rate 250 g/ha
  Velvetleaf plant response rating: 4
velvetleaf; Preemergence, Rate 500 g/ha
  Velvetleaf plant response rating: 6
velvetleaf; Rate 62 g/ha, Postemergence
  Velvetleaf plant response rating: 0
velvetleaf; [3]
  Plant response rating, Velvetleaf: 6
wheat; [1]
  Plant response rating, Wheat: 0
wheat; [2]
  Plant response rating, Wheat: 0
wheat; Preemergence, Rate 125 g/ha
  Wheat plant response rating (0 to 10 scale): 0
wheat; Preemergence, Rate 250 g/ha
  Wheat plant response rating: 2
wheat; Preemergence, Rate 500 g/ha
  Wheat plant response rating: 3
wheat; Rate 62 g/ha, Postemergence
  Wheat plant response rating: 0
wheat; [3]
  Plant response rating, Wheat: 2
Wild oat; [1]
  Plant response rating, Wild oats: 0
Wild oat; [2]
  Plant response rating, Wild oats: 0
Wild oat; Preemergence, Rate 125 g/ha
  Wild oats plant response rating (0 to 10 scale): 3
Wild oat; Preemergence, Rate 250 g/ha
  Wild oats plant response rating: 5
Wild oat; Preemergence, Rate 500 g/ha
  Wild oats plant response rating: 7
Wild oat; Rate 62 g/ha, Postemergence
  Wild oats plant response rating: 0
Wild oat; [3]
  Plant response rating, Wild oats: 5
Purple nutsedge; [1]
  Plant response rating, Nutsedge: 0
Purple nutsedge; Preemergence, Rate 125 g/ha
  Nutsedge plant response rating (0 to 10 scale): 0
Purple nutsedge; Preemergence, Rate 250 g/ha
  Nutsedge plant response rating: 0
Purple nutsedge; Preemergence, Rate 500 g/ha
  Nutsedge plant response rating: 10
Purple nutsedge; Rate 62 g/ha, Postemergence
  Nutsedge plant response rating: 0
Purple nutsedge; [3]
  Plant response rating, Nutsedge: 0
rice; [4]
  Plant response rating, Rice: 0
rice; [5]
  Rice plant response rating: 0
rice; [6]
  Plant response rating, Rice (0 to 10 scale, 0 is no effect, 10 is complete control): 0
rice; [7]
  Rice plant response rating: 0
rice; [8]
  Rice plant response rating: 0
rice; [9]
  Plant response rating, Rice: 0
rice; [10]
  Rice plant response rating: 0
Duck salad; [4]
  Plant response rating, Ducksalad: 2
Duck salad; [5]
  Ducksalad plant response rating: 0
Duck salad; [6]
  Plant response rating, Ducksalad (0 to 10 scale, 0 is no effect, 10 is complete control): 0
Duck salad; [7]
  Ducksalad plant response rating: 0
Duck salad; [8]
  Ducksalad plant response rating: 0
Duck salad; [9]
  Plant response rating, Ducksalad: 3
Duck salad; [10]
  Ducksalad plant response rating: 0
bamyardgrass; [4]
  Plant response rating, Barnyardgrass: 0
bamyardgrass; [5]
  Barnyardgrass plant response rating: 0
bamyardgrass; [6]
  Plant response rating, Barnyardgrass (0 to 10 scale, 0 is no effect, 10 is complete control): 0
bamyardgrass; [7]
  Barnyardgrass plant response rating: 0
bamyardgrass; Rate 250 g/ha, Postemergence (flood test species), scale of 0 to 10 where 0 is no effect and 10 is complete control
  Plant response rating, Barnyardgrass: 3
bamyardgrass; [8]
  Barnyardgrass plant response rating: 0
bamyardgrass; [9]
  Plant response rating, Barnyardgrass: 5
bamyardgrass; [10]
  Barnyardgrass plant response rating: 0
